# Experimental data published in patent US20150320787A1, “COBALAMIN COMPOSITIONS AND METHODS FOR TREATING OR PREVENTING MUCOSITIS” (OraHealth Corp., priority 2006, published 2015).
# Tests used:
# [1] = Non-blinded test of active adhering dissolving discs in additional subjects; assay type: in vivo, human
# Source text: (§1) Troches in the form of dissolving muco-adhesive tablets may be made by pressing powders including mucoadhesive hydrocolloids. A preferred form of such an adhering troche may be made by mixing dry powders consisting of 80 percent acacia gum (gum arabic) for adhesive and 20 percent xylitol for flavor, then adding up to 1 percent carboxymethylcellulose (CMC), to enhance mouth feel, moderate adhesiveness of the acacia gum, and slow dissolution, and about 500 micrograms of cobalamin. The tablet may be pressed into the shape shown in FIG. 3 for good adhesion to a tooth. Such a tablet is suitably about 8 mm in diameter and about 85 milligrams in weight.
# (§2) The typical instruction to users is to stick a troche in their mouths, just before they go to sleep, between teeth and cheek, placing it on the tongue side of the teeth if the patient suffers particularly from ulcers on or under the tongue and otherwise placing it on the cheek side. In greater detail, the instructions state: “Use after brushing teeth, at least one disc per day, and allow to dissolve for 30 minutes with nothing else in your mouth. In an area of your mouth where you experience sores, use your tongue to hold the dimpled side of the disc against a tooth until it adheres. The disc will slowly dissolve over 10 to 40 minutes, releasing cobalamin which is absorbed directly into the mouth lining tissues. […]
# [2] = Placebo-controlled test of adhering dissolving discs, one each day, in subjects with minor RAU at least monthly; assay type: in vivo, human; conditions: active group, seven subjects, discs with 500 mcg methylcobalamin, 30 discs, placebo discs with red food coloring
# Source text: as §1, §2
smiles,measurement,setting,value
C/C1=C2/[N-][C@H]([C@H](CC(N)=O)[C@@]2(C)CCC(=O)NC[C@@H](C)OP(=O)([O-])O[C@H]2[C@@H](O)[C@@H](n3cnc4cc(C)c(C)cc43)O[C@@H]2CO)[C@]2(C)N=C(/C(C)=C3N=C(/C=C4N=C1[C@@H](CCC(N)=O)C\4(C)C)[C@@H](CCC(N)=O)[C@]\3(C)CC(N)=O)[C@@H](CCC(N)=O)[C@]2(C)CC(N)=O.[CH3-].[Co+3] [methylcobalamin],time after stopping the discs until an ulcer with a pain level like before starting (mean),[1]; five subjects who reported a benefit and stopped using the discs,4.8 days
same,subjects who reported a benefit of using the discs,"[1]; twenty-five additional non-blinded subjects, active discs with 500 mcg methylcobalamin",96%
same,"subjects who reported a benefit (reduced frequency of minor RAU, reduced duration of ulcers, or reduced peak pain levels)",[2],100%
